Data published in US4740601A, “Imidazole derivatives having antimicrobial activities” (SS Pharmaceutical Co., Ltd., priority 1985, dated 1988).
≈ marks a conversion by molar mass, not a printed value.

Tests used:
Type in all cases: cell-based
[1] = test system: Trichophyton tonsurans IFO 5928; assay: antimicrobial activity, MIC; conditions: Trichophyton tonsurans, IFO5928, Trichophyton tonsurans IFO 5928; read-out: MIC
[2] = test system: Helminthosporium sesamum IAM 5012; assay: antimicrobial activity, MIC; conditions: Helminthosporium, IAM5012, Helminthosporium sesamum IAM 5012; read-out: MIC
[3] = test system: Debaryomyces kloeckeri IFO 0015; assay: antimicrobial activity, MIC; conditions: IFO0015, read-out: MIC
[4] = test system: Aspergillus oryzae IMF 4014; assay: antimicrobial activity, MIC; conditions: Aspergillus oryzae, IMF4014, Aspergillus oryzae IMF 4014; read-out: MIC
[5] = test system: Trichophyton rubrum NHL J; assay: antimicrobial activity, MIC; conditions: Trichophyton rubrum, Trichophyton rubrum NHL J; read-out: MIC
[6] = test system: Microsporum cookei IFO 8303; assay: antimicrobial activity, MIC; conditions: Paraphyton cookei, IFO8303, Microsporum cookei IFO 8303; read-out: MIC
[7] = test system: Staphylococcus epidermidis ATCC 12228; assay: antimicrobial activity, MIC; conditions: Staphylococcus epidermidis, ATCC12228, Staphylococcus epidermidis ATCC 12228; read-out: MIC
[8] = test system: Gibberella fujikuroi IAM 8046; assay: antimicrobial activity, MIC; conditions: Fusarium fujikuroi, IAM8046, Gibberella fujikuroi IAM 8046; read-out: MIC
[9] = test system: Saccharomyces ruxii 6507; assay: antimicrobial activity, MIC; conditions: Saccharomyces ruxii 6507; read-out: MIC
[10] = test system: Microsporum gypseum IFO 8231; assay: antimicrobial activity, MIC; conditions: Nannizzia gypsea, IFO8231, Microsporum gypseum IFO 8231; read-out: MIC
[11] = test system: Saccharomyces cerevisiae ATCC 9763; assay: antimicrobial activity, MIC; conditions: Saccharomyces cerevisiae, ATCC9763, Saccharomyces cerevisiae ATCC 9763; read-out: MIC
[12] = test system: Micrococcus lysodeixticus IFO 3333; assay: antimicrobial activity, MIC; conditions: Micrococcus, IFO3333, Micrococcus lysodeixticus IFO 3333; read-out: MIC
[13] = test system: Epidermophyton floccosum IFO 9045; assay: antimicrobial activity, MIC; conditions: Epidermophyton floccosum, IFO9045, Epidermophyton floccosum IFO 9045; read-out: MIC
[14] = test system: Bacillus subtilis ATCC 6633; assay: antimicrobial activity, MIC; conditions: Bacillus subtilis, ATCC6633, Bacillus subtilis ATCC 6633; read-out: MIC
[15] = test system: Staphylococcus aureus Terajima; assay: antimicrobial activity, MIC; conditions: Staphylococcus aureus, read-out: MIC
[16] = test system: Staphylococcus aureus FDA 209P; assay: antimicrobial activity, MIC; conditions: Staphylococcus aureus, FDA209P, read-out: MIC
[17] = test system: Aspergillus niger ATCC 9642; assay: antimicrobial activity, MIC; conditions: Aspergillus niger, ATCC9642, Aspergillus niger ATCC 9642; read-out: MIC
[18] = test system: Trichophyton mentagrophytes QM 248; assay: antimicrobial activity, MIC; conditions: Trichophyton mentagrophytes, QM248, Trichophyton mentagrophytes QM 248; read-out: MIC
[19] = test system: Streptococcus faecalis IFO 12964; assay: antimicrobial activity, MIC; conditions: Enterococcus faecalis, IFO12964, Streptococcus faecalis IFO 12964; read-out: MIC
[20] = test system: Microsporum audounii IFO 6074; assay: antimicrobial activity, MIC; conditions: Microsporum, IFO6074, Microsporum audounii IFO 6074; read-out: MIC
[21] = test system: Pyricularia oryzae IAM 5016; assay: microbe, parasite or virus in culture; conditions: Pyricularia oryzae, IAM5016, Pyricularia oryzae IAM 5016
[22] = test system: Fusarium moniliforme IAM 5062; assay: antimicrobial activity, MIC; conditions: Fusarium verticillioides, IAM5062, Fusarium moniliforme IAM 5062; read-out: MIC
[23] = test system: Sarcina lutea ATCC 9341; assay: antimicrobial activity, MIC; conditions: Micrococcus luteus, ATCC9341, Sarcina lutea ATCC 9341; read-out: MIC
[24] = test system: Candida albicans NHL 4019; assay: antimicrobial activity, MIC; conditions: Candida albicans, NHL4019, Candida albicans NHL 4019; read-out: MIC
[25] = test system: Cladosporium fulvum IAM 5006; assay: antimicrobial activity, MIC; conditions: Fulvia fulva, IAM5006, Cladosporium fulvum IAM 5006; read-out: MIC
[26] = test system: Trichophyton mentagrophytes IFO 5812; assay: antimicrobial activity, MIC; conditions: Trichophyton mentagrophytes, IFO5812, Trichophyton mentagrophytes IFO 5812; read-out: MIC
[27] = test system: Penicillium chrysogenum ATCC 6010; assay: antimicrobial activity, MIC; conditions: Penicillium chrysogenum, ATCC6010, Penicillium chrysogenum ATCC 6010; read-out: MIC
[28] = test system: Candida albicans Yu-1200; assay: antimicrobial activity, MIC; conditions: YU1200, read-out: MIC
[29] = test system: Staphylococcus aureus Smith; assay: antimicrobial activity, MIC; conditions: Staphylococcus aureus, read-out: MIC

| Compound | MIC [1] | MIC [2] | MIC [3] | MIC [4] | MIC [5] | MIC [6] | MIC [7] | MIC [8] | MIC [9] | MIC [10] | MIC [11] | MIC [12] | MIC [13] | MIC [14] | MIC [15] | MIC [16] | MIC [17] | MIC [18] | MIC [19] | MIC [20] | also measured |
| --- | --- | --- | --- | --- | --- | --- | --- | --- | --- | --- | --- | --- | --- | --- | --- | --- | --- | --- | --- | --- | --- |
| CCCCOc1ccccc1C(=CSCc1ccccc1)n1ccnc1 (single isomer, unassigned) [Compound 8] | < 0.2 µg/mL | 0.78 µg/mL (≈ 2.14 µM) | 6.25 µg/mL (≈ 17.1 µM) | 12.5 µg/mL (≈ 34.3 µM) | < 0.2 µg/mL | 12.5 µg/mL (≈ 34.3 µM) | 6.25 µg/mL (≈ 17.1 µM) | 6.25 µg/mL (≈ 17.1 µM) | < 0.2 µg/mL | 0.39 µg/mL (≈ 1.07 µM) | < 0.2 µg/mL | 1.56 µg/mL (≈ 4.28 µM) | 6.25 µg/mL (≈ 17.1 µM) | 3.12 µg/mL (≈ 8.56 µM) | 6.25 µg/mL (≈ 17.1 µM) | 25 µg/mL (≈ 68.6 µM) | 12.5 µg/mL (≈ 34.3 µM) | 0.39 µg/mL (≈ 1.07 µM) | > 100 µg/mL | < 0.2 µg/mL | MIC [21]: < 0.2 µg/mL; MIC [22]: 12.5 µg/mL (≈ 34.3 µM); MIC [23]: 3.12 µg/mL (≈ 8.56 µM); MIC [24]: > 100 µg/mL; MIC [25]: > 100 µg/mL; MIC [26]: 0.39 µg/mL (≈ 1.07 µM); MIC [27]: 12.5 µg/mL (≈ 34.3 µM); MIC [28]: > 100 µg/mL; MIC [29]: 6.25 µg/mL (≈ 17.1 µM) |
| CCCCCCOc1ccccc1C(=CSC)n1ccnc1 (single isomer, unassigned) [Compound 27] | < 0.2 µg/mL | < 0.2 µg/mL | 1.56 µg/mL (≈ 4.93 µM) | < 0.2 µg/mL | < 0.2 µg/mL | < 0.2 µg/mL | 6.25 µg/mL (≈ 19.7 µM) | < 0.2 µg/mL | < 0.2 µg/mL | < 0.2 µg/mL | < 0.2 µg/mL | 1.56 µg/mL (≈ 4.93 µM) | < 0.2 µg/mL | 6.25 µg/mL (≈ 19.7 µM) | 6.25 µg/mL (≈ 19.7 µM) | 12.5 µg/mL (≈ 39.5 µM) | 0.39 µg/mL (≈ 1.23 µM) | < 0.2 µg/mL | 12.5 µg/mL (≈ 39.5 µM) | < 0.2 µg/mL | MIC [21]: < 0.2 µg/mL; MIC [22]: < 0.2 µg/mL; MIC [23]: 3.12 µg/mL (≈ 9.86 µM); MIC [24]: 25 µg/mL (≈ 79 µM); MIC [25]: 3.12 µg/mL (≈ 9.86 µM); MIC [26]: < 0.2 µg/mL; MIC [27]: 1.56 µg/mL (≈ 4.93 µM); MIC [28]: 50 µg/mL (≈ 158 µM); MIC [29]: 12.5 µg/mL (≈ 39.5 µM) |
| CCCCSC=C(c1ccccc1OCCC)n1ccnc1 (single isomer, unassigned) [Compound 46] | < 0.2 µg/mL | 1.56 µg/mL (≈ 4.93 µM) | 12.5 µg/mL (≈ 39.5 µM) | 0.78 µg/mL (≈ 2.46 µM) | < 0.2 µg/mL | 1.56 µg/mL (≈ 4.93 µM) | 6.25 µg/mL (≈ 19.7 µM) | 0.39 µg/mL (≈ 1.23 µM) | 0.78 µg/mL (≈ 2.46 µM) | < 0.2 µg/mL | < 0.2 µg/mL | 3.12 µg/mL (≈ 9.86 µM) | 1.56 µg/mL (≈ 4.93 µM) | 6.25 µg/mL (≈ 19.7 µM) | 12.5 µg/mL (≈ 39.5 µM) | 12.5 µg/mL (≈ 39.5 µM) | 1.56 µg/mL (≈ 4.93 µM) | < 0.2 µg/mL | 12.5 µg/mL (≈ 39.5 µM) | < 0.2 µg/mL | MIC [21]: < 0.2 µg/mL; MIC [22]: 1.56 µg/mL (≈ 4.93 µM); MIC [23]: 6.25 µg/mL (≈ 19.7 µM); MIC [24]: 25 µg/mL (≈ 79 µM); MIC [25]: 12.5 µg/mL (≈ 39.5 µM); MIC [26]: < 0.2 µg/mL; MIC [27]: 1.56 µg/mL (≈ 4.93 µM); MIC [28]: 50 µg/mL (≈ 158 µM); MIC [29]: 12.5 µg/mL (≈ 39.5 µM) |
| CCCCOc1ccccc1C(=C(Br)Br)n1ccnc1 [Compound 93] | 1.56 µg/mL (≈ 3.9 µM) | 50 µg/mL (≈ 125 µM) | 6.25 µg/mL (≈ 15.6 µM) | > 100 µg/mL | 0.39 µg/mL (≈ 0.975 µM) | 12.5 µg/mL (≈ 31.2 µM) | 25 µg/mL (≈ 62.5 µM) | > 100 µg/mL | < 0.2 µg/mL | 6.25 µg/mL (≈ 15.6 µM) | < 0.2 µg/mL | 6.25 µg/mL (≈ 15.6 µM) | 25 µg/mL (≈ 62.5 µM) | 12.5 µg/mL (≈ 31.2 µM) | 25 µg/mL (≈ 62.5 µM) | 25 µg/mL (≈ 62.5 µM) | > 100 µg/mL | 1.56 µg/mL (≈ 3.9 µM) | 50 µg/mL (≈ 125 µM) | < 0.2 µg/mL | MIC [21]: 0.39 µg/mL (≈ 0.975 µM); MIC [22]: > 100 µg/mL; MIC [23]: 25 µg/mL (≈ 62.5 µM); MIC [24]: 100 µg/mL (≈ 250 µM); MIC [25]: > 100 µg/mL; MIC [26]: < 0.2 µg/mL; MIC [27]: > 100 µg/mL; MIC [28]: > 100 µg/mL; MIC [29]: 25 µg/mL (≈ 62.5 µM) |
| CCOc1ccccc1C(=CSCc1ccccc1)n1ccnc1 [Compound 7] | < 0.2 µg/mL | 0.39 µg/mL (≈ 1.16 µM) | 25 µg/mL (≈ 74.3 µM) | 6.25 µg/mL (≈ 18.6 µM) | < 0.2 µg/mL | 12.5 µg/mL (≈ 37.2 µM) | 25 µg/mL (≈ 74.3 µM) | 6.25 µg/mL (≈ 18.6 µM) | 0.78 µg/mL (≈ 2.32 µM) | 1.56 µg/mL (≈ 4.64 µM) | < 0.2 µg/mL | 6.25 µg/mL (≈ 18.6 µM) | 6.25 µg/mL (≈ 18.6 µM) | 25 µg/mL (≈ 74.3 µM) | 25 µg/mL (≈ 74.3 µM) | 50 µg/mL (≈ 149 µM) | 12.5 µg/mL (≈ 37.2 µM) | 3.12 µg/mL (≈ 9.27 µM) | 50 µg/mL (≈ 149 µM) | < 0.2 µg/mL | MIC [21]: < 0.2 µg/mL; MIC [22]: 6.25 µg/mL (≈ 18.6 µM); MIC [23]: 12.5 µg/mL (≈ 37.2 µM); MIC [24]: 100 µg/mL (≈ 297 µM); MIC [25]: 100 µg/mL (≈ 297 µM); MIC [26]: 0.78 µg/mL (≈ 2.32 µM); MIC [27]: 50 µg/mL (≈ 149 µM); MIC [28]: > 100 µg/mL; MIC [29]: 12.5 µg/mL (≈ 37.2 µM) |
